Where two headings read alike, the source gives them in different places.
Assays:
R-type Ca^2+ channel = assay: block of R-type Ca2+ channel (data not shown); type: cell-based
[1] = anaesthetized guinea pig, blood pressure and bronchoconstriction, PAF challenge; type: in vivo
From the text: (§1) On the other hand, in vivo administered PAF, induced a marked hypotension in the anaesthetized rat and guinea pig.

[2] = anaesthetized rat, blood pressure, PAF challenge; type: in vivo; conditions: results not shown
From the text: as §1

[3] = test system: human osteoblast cancer lines (MG63 and FAOS-2); assay: spontaneous proliferation of human osteoblast cancer lines; type: cell-based; conditions: Lomir/Dynacirc 10^-8M, nifedipine 10^-6M, non published results
[4] = organ (allograft) transplant with cyclosporin A treatment, ET-1, blood flow, hypertension; type: in vivo, rabbit
fast Na^+ channel = assay: block of fast Na+ channel (data not shown); type: cell-based; conditions: read-out: ED50, fast Na^+ channel
[5] = La Civita et al., 1996; cited from earlier work
[6] = cited from earlier work
[7] = writhe responses in mice (acetic acid, acetylcholine, kaolin); type: in vivo; conditions: i.p., mice; for ID50 ACETYLCHOLINE: acetylcholine-induced writhes; for ID50 KAOLIN: kaolin-induced writhes
From the text: (§2) The antinociceptive actions of compound MV 8612 and MV 8608 were investigated in different models of nociception in mice as reported previously (Vaz et al., 1996, J. Pharmacol. Exp. Ther. 278:304-312).

tail-flick in mice = type: in vivo; conditions: i.p.
From the text: as §2

[8] = transplant patients, Berg et al., 1991

## COc1cccc(CCN(C)CCCC(C#N)(c2ccc(OC)c(OC)c2)C(C)C)c1 (stereo not shown) [D888]
R-type Ca^2+ channel
  block of the R-type Ca^2+ by L-type Ca^2+ channel blockers: none were found to block

## COc1ccc([C@@H]2Sc3ccccc3N(CCN(C)C)C(=O)[C@@H]2OC(C)=O)cc1 [Diltiazem]
R-type Ca^2+ channel
  block of the R-type Ca^2+ by L-type Ca^2+ channel blockers: none were found to block

## COC(=O)C1=C(C)NC(C)=C(C(=O)OC)C1c1ccccc1[N+](=O)[O-] [nifedipine]
[1]
  intrinsic (hypotensive) effect: marked intrinsic hypotensive properties
[2]
  intrinsic hypotensive properties: marked intrinsic hypotensive properties

## COc1ccc(CCN(C)CCCC(C#N)(c2cc(OC)c(OC)c(OC)c2)C(C)C)cc1OC (stereo not shown) [D600]
R-type Ca^2+ channel
  block of the R-type Ca^2+ by L-type Ca^2+ channel blockers: none were found to block

## COc1ccc(CCN(C)CCCC(C#N)(c2ccc(OC)c(OC)c2)C(C)C)cc1OC (stereo not shown) [Verapamil]
R-type Ca^2+ channel
  block of the R-type Ca^2+ by L-type Ca^2+ channel blockers: none were found to block

## COC(=O)C1=C(C)NC(C)=C(C(=O)OC(C)C)C1c1cccc2nonc12 (stereo not shown) [isradipine]
[1]
  intrinsic (hypotensive) effect: marked intrinsic hypotensive properties
[2]
  intrinsic hypotensive properties: marked intrinsic hypotensive properties
[3]
  spontaneous cell proliferation: reduced
[4]; data not shown
  elevated circulating endothelin level induced with the Sandimmune drugs: blocks
[4]; non published results
  hypertension and ET-1 plasma elevation associated with cyclosporin A treatment in allograft transplant: blocked
[4]; rabbit, cyclosporin-A treated and transplanted animals
  increase of circulating ET-1 and decrease of blood flow in organ transplants: restored
Fast Na^+ channel
  EC50: ~10 µM
[5]
  elevated plasma concentration of ET-1 level, frequency, severity of acute attacks of Raynaud's phenomenon: significantly reduced
[6]; 3-month study, Grossman et al. 1991
  filtration fraction: remained constant
[6]; [8]
  filtration fraction: reduced
  renal blood flow: increased

## COc1ccc([C@@H]2Sc3cc(Cl)ccc3N(CCN(C)C)C(=O)[C@@H]2OC(C)=O)cc1 [Clentiazem]
R-type Ca^2+ channel
  block of the R-type Ca^2+ by L-type Ca^2+ channel blockers: none were found to block

## CN1CC[C@]23c4c5ccc(O)c4O[C@H]2[C@@H](O)C=C[C@H]3[C@H]1C5 [MORPHINE, morphine]
[7]
  ID50 ACETYLCHOLINE: 1.4 (1.0-1.8) µmol/kg
  ID50 KAOLIN: 1.4 (1.2-1.7) µmol/kg
tail-flick in mice
  ID50 TAIL-FLICK: 6.0(5.7-6.4) µmol/kg

## COc1ccc2c(c1)c(CC(=O)O)c(C)n2C(=O)c1ccc(Cl)cc1 [INDOMETHACIN, indomethacin]
[7]; acetic acid-induced writhes
  ID50 ACETIC ACID: 1.2 (0.9-1.4) µmol/kg
[7]
  ID50 ACETYLCHOLINE: 0.8 (0.5-1.0) µmol/kg
  ID50 KAOLIN: 1.6 (1.4-1.8) µmol/kg
tail-flick in mice
  ID50 TAIL-FLICK: no effect

From patent EP1028734B1, “USE OF SPECIFIC STEADY-STATE R-TYPE CALCIUM CHANNEL BLOCKERS” (priority 1997, dated 1999)
